Tests used:
HL-60(TB) = test: NCI COMPARE panel (SRB growth inhibition), HL-60(TB); assay type: cell-based; conditions: Homo sapiens, Leukemia, 48 h
Experimental: (§1) The human tumor cell lines of the cancer screening panel are grown in RPMI 1640 medium containing 5% fetal bovine serum and 2 mM L-glutamine. For a typical screening experiment, cells are inoculated into 96 well microtiter plates in 100 µL at plating densities ranging from 5,000 to 40,000 cells/well depending on the doubling time of individual cell lines. After cell inoculation, the microtiter plates are incubated at 37° C., 5% CO2, 95% air and 100% relative humidity for 24 h prior to addition of experimental drugs.
(§2) After 24 h, two plates of each cell line are fixed in situ with TCA, to represent a measurement of the cell population for each cell line at the time of drug addition (Tz). Experimental drugs are solubilized in dimethyl sulfoxide at 400-fold the desired final maximum test concentration and stored frozen prior to use. […]
(§3) Following drug addition, the plates are incubated for an additional 48 h at 37° C., 5 % CO2, 95% air, and 100% relative humidity. […] Bound stain is subsequently solubilized with 10 mM trizma base, and the absorbance is read on an automated plate reader at a wavelength of 515 nm. […] Using the seven absorbance measurements [time zero, (Tz), control growth, (C), and test growth in the presence of drug at the five concentration levels (Ti)], the percentage growth is calculated at each of the drug concentrations levels. Percentage growth inhibition is calculated as: […]

OVCAR-4 = test: NCI COMPARE panel (SRB growth inhibition), OVCAR-4; assay type: cell-based; conditions: Homo sapiens; Ovarian Cancer, OVCAR-4, 48 h
Experimental: as §1, §2, §3

EGFR = EGFR (Homo sapiens, UniProt P00533); test: Z'-LYTE / Adapta biochemical kinase assay, EGFR; conditions: for inhibition at 0.1 µM: concentration of 100 nM/liter, read-out: Percent Inhibition of target enzymes, EGFR
Text: The Z′-LYTE® biochemical assay employs a fluorescence-based, coupled-enzyme format and is based on the differential sensitivity of phosphorylated and non-phosphorylated peptides to proteolytic cleavage. The peptide substrate is labeled with two fluorophores—one at each end—that make up a FRET pair. In the primary reaction, the kinase transfers the gamma-phosphate of ATP to a single tyrosine, serine or threonine residue in a synthetic FRET-peptide. In the secondary reaction, a site-specific protease recognizes and cleaves non-phosphorylated FRET-peptides. Phosphorylation of FRET-peptides suppresses cleavage by the Development Reagent. Cleavage disrupts FRET between the donor (i.e., coumarin) and acceptor (i.e., fluorescein) fluorophores on the FRET-peptide, whereas uncleaved, phosphorylated FRET-peptides maintain FRET. A ratiometric method, which calculates the ratio (the Emission Ratio) of donor emission to acceptor emission after excitation of the donor fluorophore at 400 nm, is used to quantitate reaction progress.
A significant benefit of this ratiometric method for quantitating reaction progress is the elimination of well-to-well variations in FRET-peptide concentration and signal intensities. As a result, the assay yields very high Z′-factor values (>0.7) at a low percent phosphorylation.
Both cleaved and uncleaved FRET-peptides contribute to the fluorescence signals and therefore to the Emission Ratio. The extent of phosphorylation of the FRET-peptide can be calculated from the Emission Ratio. The Emission Ratio will remain low if the FRET-peptide is phosphorylated (i.e., no kinase inhibition) and will be high if the FRET-peptide is non-phosphorylated (i.e., kinase inhibition).
Enzyme: The ADAPTA universal kinase assay is a homogenous, fluorescent based immunoassay for the detection of ADP. In contrast to ATP depletion assays, the ADAPTA assay is extremely sensitive to ADP formation such that a majority of the signal change occurs in the first 10-20% conversion of ATP to ADP. This makes the ADAPTA universal kinase assay ideally suited for use with low activity kinases.
The principle of the ADAPTA universal kinase assay is outlined below. The assay itself can be divided into two phases: a kinase reaction phase, and an ADP detection phase. In the kinase reaction phase, all components required for the kinase reaction are added to the well, and the reaction is allowed to incubate for 60 minutes. After the reaction, a detection solution consisting of a europium labeled anti-ADP antibody, an Alexa Fluor® 647 labeled ADP tracer, and EDTA (to stop the kinase reaction) is added to the assay well. ADP formed by the kinase reaction (in the absence of an inhibitor) will displace the Alexa Fluor® 647 labeled ADP tracer from the antibody, resulting in a decrease in the TR-FRET signal. In the presence of an inhibitor, the amount of ADP formed by the kinase reaction is reduced, and the resulting intact antibody-tracer interaction results in a high TR-FRET signal.
Test Compounds: The Test Compounds are screened in 1% DMSO (final) in the well. For 10 point titrations, 3-fold serial dilutions are conducted from the starting concentration of the customer’s choosing.
Peptide/Kinase Mixtures: All Peptide/Kinase Mixtures are diluted to a 2X working concentration in the appropriate Kinase Buffer.
ATP Solution: All ATP Solutions are diluted to a 4X working concentration in Kinase Buffer (50 mM HEPES pH 7.5, 0.01% BRIJ-35, 10 mM MgCl2,1 mM EGTA). ATP Km apparent is previously determined using a Z′-LYTE® assay.
Development Reagent Solution: The Development Reagent is diluted in Development Buffer.
Assay Protocol: Bar-coded Corning, low volume NBS, black 384-wellplate (Corning Cat. #4514) 1. 2.5 µL - 4X Test Compound or 100 nL 100X plus 2.4 µL kinase buffer. 2. 5 µL - 2X Peptide/Kinase Mixture. 3. 2.5 µL - 4X ATP Solution. 4. 30-second plate shake. 5. 60-minute Kinase Reaction incubation at room temperature. 6. 5 µL - Development Reagent Solution. 7. […]

COLO 205 = test: NCI COMPARE panel (SRB growth inhibition), COLO 205; assay type: cell-based; conditions: Homo sapiens; Colon Cancer, COLO 205, 48 h
Experimental: as §1, §2, §3

Sequence of EGFR (P00533 25-1210): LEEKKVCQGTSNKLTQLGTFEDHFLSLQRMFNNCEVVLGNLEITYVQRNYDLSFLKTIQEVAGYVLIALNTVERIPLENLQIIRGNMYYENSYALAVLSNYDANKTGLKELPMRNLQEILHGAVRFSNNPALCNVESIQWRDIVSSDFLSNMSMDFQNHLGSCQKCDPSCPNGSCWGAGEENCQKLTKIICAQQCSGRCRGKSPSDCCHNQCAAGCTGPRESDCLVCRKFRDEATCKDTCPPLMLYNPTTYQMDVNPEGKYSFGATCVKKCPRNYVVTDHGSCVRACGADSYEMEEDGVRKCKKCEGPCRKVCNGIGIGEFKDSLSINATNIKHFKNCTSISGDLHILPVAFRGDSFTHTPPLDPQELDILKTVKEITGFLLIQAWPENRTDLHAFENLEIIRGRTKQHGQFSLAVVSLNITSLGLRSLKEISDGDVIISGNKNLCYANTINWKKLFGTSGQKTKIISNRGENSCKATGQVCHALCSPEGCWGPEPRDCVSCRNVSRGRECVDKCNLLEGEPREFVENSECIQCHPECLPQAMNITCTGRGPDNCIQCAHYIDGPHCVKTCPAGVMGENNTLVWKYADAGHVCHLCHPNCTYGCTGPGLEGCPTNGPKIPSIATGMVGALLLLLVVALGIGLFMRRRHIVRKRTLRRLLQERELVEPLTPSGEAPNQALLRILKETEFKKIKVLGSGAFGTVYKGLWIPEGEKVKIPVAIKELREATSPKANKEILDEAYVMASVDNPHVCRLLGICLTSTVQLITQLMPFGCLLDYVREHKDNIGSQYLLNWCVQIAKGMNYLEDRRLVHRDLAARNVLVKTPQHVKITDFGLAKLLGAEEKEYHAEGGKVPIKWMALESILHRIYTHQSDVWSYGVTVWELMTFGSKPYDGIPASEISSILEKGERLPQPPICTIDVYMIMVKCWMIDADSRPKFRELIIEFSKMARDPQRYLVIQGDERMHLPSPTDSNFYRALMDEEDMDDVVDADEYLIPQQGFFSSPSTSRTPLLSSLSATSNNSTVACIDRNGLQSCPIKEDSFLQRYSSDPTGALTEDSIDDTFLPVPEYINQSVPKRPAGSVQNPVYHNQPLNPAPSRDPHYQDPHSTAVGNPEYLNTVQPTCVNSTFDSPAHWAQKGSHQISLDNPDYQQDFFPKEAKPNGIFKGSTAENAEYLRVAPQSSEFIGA

| Structure (SMILES) | GI50 (HL-60(TB)) [nM] | GI50 (OVCAR-4) [nM] | IC50 (EGFR; EGFR) [nM] | inhibition at 0.1 µM (EGFR) [%] | GI50 (COLO 205) [nM] |
| --- | --- | --- | --- | --- | --- |
| CS(=O)(=O)Nc1cc(-c2ccc3ncnc(Nc4cccc(Cl)c4F)c3c2)cnc1Cl [Compound 6, N-[2-chloro-5-[4-(3-chloro-2-fluoro-anilino)quinazolin-6-yl]-3-pyridyl] methanesulfonamide] | 75 to 125 | > 250 | ≤ 2 | > 90 | 125 to 250 |
| CS(=O)(=O)Nc1cc(-c2ccc3ncc(C#N)c(Nc4cccc(Cl)c4F)c3c2)cnc1Cl [Compound 10, N-[2-chloro-5-[4-(3-chloro-2-fluoro-anilino)-3-cyano-6-quinolyl]-3-pyridyl]methanesulfonamide] | ≤ 75 | > 250 |  | > 90 | 125 to 250 |

From patent publication US20230133958A1, “COMPOUNDS USEFUL IN MODULATING EGFR AND PI3K” (Mekanistic Therapeutics LLC, priority 2021, published 2023)
